# Results published in publication PMC11145868, “Protein target similarity is positive predictor of in vitro antipathogenic activity: a drug repurposing strategy for Plasmodium falciparum” (Journal of Cheminformatics, 2024).
# Structures can show the parent of a compound that is named as a salt. Where two headings read alike, the source gives them in different places.
# What was measured:
# [1] = tested on: P. falciparum Dd2-HLH; experiment: microbe, parasite or virus in culture; format: cell-based, Plasmodium falciparum
# [2] = target: P. berghei-luciferase sporozoites; experiment: microbe, parasite or virus in culture; format: cell-based, Plasmodium berghei
# [3] = tested on: HEK293T cells
# [4] = tested on: HepG2 cells
# [5] = tested on: P. falciparum Dd2-HLH; experiment: microbe, parasite or virus in culture; format: cell-based, Plasmodium falciparum; remark: listed apart in the source
# [6] = tested on: HepG2 cells; experiment: Mammalian cell cytotoxicity assay, HepG2 (CellTiter-Glo, 72 h); conditions: read-out: HEP CC50
# [7] = tested on: HEK293T cells; experiment: Mammalian cell cytotoxicity assay, HEK293T (CellTiter-Glo, 72 h); conditions: read-out: HEK CC50
# [8] = in vitro; conditions: human
# [9] = in vitro; conditions: human; remark: listed apart in the source
# [10] = tested on: P. falciparum blood-stage; parameters: method as in PMID 28874661; conditions: read-out: EC50 against P. falciparum blood-stage growth in vitro; cited from earlier work
# [11] = tested on: PfPKG; conditions: read-out: IC50 in PfPKG kinase assays; cited from earlier work
# [12] = tested on: P. falciparum (NF54 drug-sensitive strain); parameters: method as in PMID 28446690; conditions: read-out: EC50 against intraerythrocytic lifecycle stages of P. falciparum; cited from earlier work
# [13] = Mammalian cell cytotoxicity assay, HepG2 (CellTiter-Glo, 72 h); conditions: human
# [14] = P. falciparum blood-stage parasites, 72 hours in culture, read-out: Blood stage 72h EC50
# [15] = liver-stage parasites, 48 hours in culture, read-out: Liver stage 48h EC50
# [16] = P. falciparum blood-stage parasites, 48 hours in culture, read-out: Blood stage 48h EC50
structure (smiles),measurement,setting,value
CCNCc1cncc(-c2ccc3[nH]nc(-c4nc5c(F)cc(F)cc5[nH]4)c3c2)c1C [AG-024322],EC50,[1]; [14],423 nM
same,EC50,[2]; [15],2990 nM
same,CC50,[3],145 nM
same,CC50,[4],112 nM
CCN(CC)CC(O)CNc1c2ccc(Cl)cc2nc2ccc(OC)cc12 (stereo not shown) [Acranil],EC50,[1]; [14],20 nM
same,EC50,[2]; [15],312 nM
same,EC50,[5]; [16],8 nM
same,CC50,[6]; HepG2 cells,1110 nM
same,CC50,[7]; HEK293T cells,1430 nM
CCCC1(CCC)CCC2(CCN(CCCN(CC)CC)C2)CC1 [Atiprimod dimaleate],EC50,[1]; [14],430 nM
same,EC50,[2]; [15],7330 nM
same,EC50,[5]; [16],43 nM
same,CC50,[6]; HepG2 cells,2990 nM
same,CC50,[7]; HEK293T cells,1720 nM
NC(=O)[C@@H](CC1CC1)[C@@H](CCC(F)(F)F)C(=O)N[C@H]1N=C(c2ccccc2)c2cccc(F)c2NC1=O [BMS-983970],EC50,[1]; [14],84 nM
same,EC50,[2]; [15],102 nM
same,CC50,[3],> 9950 nM
same,CC50,[4],59 nM
same,EC50,[5]; [16],63 nM
CCN(CCO)CCCOc1ccc2c(Nc3cc(CC(=O)Nc4cccc(F)c4)n[nH]3)ncnc2c1 [Barasertib-HQPA],EC50,"[1]; Plasmodium falciparum, DD2, 72 h, read-out: Blood stage 72h EC50",539 nM
same,EC50,"[2]; Plasmodium berghei, HepG2, liver-stage parasites, 48 hours in culture, read-out: Liver stage 48h EC50",4620 nM
same,CC50,[8],> 9990 nM
same,CC50,[9],> 9950 nM
same,EC50,"[5]; Plasmodium falciparum, DD2, 48 h, read-out: Blood stage 48h EC50",253 nM
CCN(CC)CCN1C(=O)c2c(c3c4cccc(Cl)c4n([C@@H]4O[C@H](CO)[C@@H](OC)[C@H](O)[C@H]4O)c3c3[nH]c4c(Cl)cccc4c23)C1=O [Becatecarin],EC50,[1]; [14],194 nM
same,EC50,[2]; [15],7160 nM
same,CC50,[3],143 nM
same,CC50,[4],158 nM
CCCCCN=C(N)Nc1nc(-c2cnc(C)[nH]2)cs1 [CP 66948],EC50,[1]; [14],977 nM
same,EC50,[2]; [15],> 10000 nM
same,CC50,[3],> 9950 nM
same,CC50,[4],> 9950 nM
same,EC50,[5]; [16],615 nM
CCC(CC)Nc1cc(C)nc(Oc2c(C)cc(C)cc2C)c1C [CP-376395],EC50,[1]; [14],884 nM
same,EC50,[2]; [15],6260 nM
same,EC50,[5]; [16],835 nM
same,CC50,[6]; HepG2 cells,2500 nM
same,CC50,[7]; HEK293T cells,> 9950 nM
CN(C)CCOc1ccc2[nH]c(C(=O)NCC#Cc3ccc(C(=O)NO)cc3)cc2c1 [CRA-026440],EC50,[1]; [14],63 nM
same,EC50,[2]; [15],2490 nM
same,CC50,[3],836 nM
same,CC50,[4],107 nM
same,EC50,[5]; [16],15 nM
COc1ccc(C)cc1NC(=O)Nc1nc2ccc(Nc3ncnc4cc(OCCCN5CCN(C)CC5)c(OC)cc34)cc2s1 [Compound 4SC-203],EC50,[1]; [14],729 nM
same,EC50,[2]; [15],3330 nM
same,CC50,[3],3000 nM
same,CC50,[4],4690 nM
Oc1ccc(CCN2CCC(Nc3nc4ccccc4n3Cc3ccc(F)cc3)CC2)cc1 [Desmethylastemizole],EC50,[1]; [14],47 nM
same,EC50,[2]; [15],70 nM
same,EC50,[5]; [16],23 nM
same,CC50,[6]; HepG2 cytotoxicity,58 nM
same,CC50,[7]; HEK293T cytotoxicity,5920 nM
CC(C)CCNC(=O)C(CC(C)C)NC(=O)C1OC1C(=O)O (stereo not shown) [EP-475],EC50,[1]; [14],313 nM
same,EC50,[2]; [15],> 10000 nM
same,CC50,[3],> 9950 nM
same,CC50,[4],> 9990 nM
same,EC50,[5]; [16],267 nM
O=C1c2ccccc2C(=O)c2sc(-c3ccco3)nc21 [INO-5042],EC50,[1]; [14],403 nM
same,EC50,[2]; [15],2070 nM
same,CC50,[3],1330 nM
same,CC50,[4],705 nM
Cc1cn2c(-c3ccnc(NCC4CC4)n3)c(-c3ccc(F)c(NS(C)(=O)=O)c3)nc2cc1CN(C)C [ML10],EC50,[10],2.1 nM
same,IC50,[11],0.16 nM
CS(=O)(=O)c1ccc(-c2cnc(N)c(-c3ccc(C(F)(F)F)nc3)c2)cc1 [MMV390048],EC50,[12],28 nM
CCOC(=O)[C@@H]1O[C@H]1C(=O)NC(CC(C)C)C(=O)N1CCN(Cc2ccc(OC)c(OC)c2OC)CC1 (stereo partly shown) [NCO 700],EC50,[1]; [14],33 nM
same,EC50,[2]; [15],> 10000 nM
same,CC50,[3],> 9950 nM
same,CC50,[4],> 9950 nM
same,EC50,[5]; [16],16 nM
"COc1cccc2c1C(=O)c1c(O)c3c(c(O)c1C2=O)C[C@@](O)(C(=O)CO)C[C@@H]3O[C@H]1C[C@H](N2CCO[C@H](OC)C2)[C@H](O)[C@H](C)O1 [Nemorubicin, reference compound]",EC50,"[1]; Plasmodium falciparum, DD2, blood-stage parasites, 72 h in culture, read-out: Blood stage 72 h EC50",9 nM
same,EC50,"[2]; Plasmodium berghei, liver-stage parasites, 48 h in culture, read-out: Liver 48 h EC50",9 nM
same,CC50,[9],5 nM
same,EC50,"[5]; Plasmodium falciparum, DD2, blood-stage parasites, 48 h in culture, read-out: Blood stage 48 h EC50",4 nM
same,CC50 at 72 h,[13],2 nM
Cn1/c(=N\C#N)n(-c2ccc(C(C)(C)C#N)nc2)c2c3cc(-c4cnc(N)c(C(F)(F)F)c4)ccc3ncc21 [Panulisib],EC50,[1]; [14],159 nM
same,EC50,[2]; [15],77 nM
same,CC50,[3],11 nM
same,CC50,[4],10 nM
same,EC50,[5]; [16],19 nM
O=C(CC1c2ccccc2C(=O)N1c1ccc2ccc(Cl)nc2n1)N1CCC2(CC1)OCCO2 (stereo not shown) [Pazinaclone],EC50,[1]; [14],427 nM
same,EC50,[2]; [15],> 10000 nM
same,EC50,[5]; [16],77 nM
same,CC50,[6]; HepG2 cells,> 9950 nM
same,CC50,[7]; HEK293T cells,> 9950 nM
CCCCCCCCN=c1ccn(CCCCCCCC)cc1 [Pirtenidine],EC50,[1]; [14],615 nM
same,EC50,[2]; [15],838 nM
same,CC50,[6]; HepG2 cells,1080 nM
same,CC50,[7]; HEK293T cells,279 nM
CCCNCC(O)COc1ccccc1C(=O)CCc1ccccc1 (stereo not shown) [Propafenone SR],EC50,[1]; read-out: Blood stage 72h EC50,566 nM
same,EC50,[2]; read-out: Liver stage 48h EC50,> 10000 nM
same,CC50,[3],> 9950 nM
same,CC50,[4],> 9990 nM
same,EC50,[5]; read-out: Blood stage 48h EC50,253 nM
CN(C)CCNc1nc2cc(O)ccc2c2c1C(=O)c1ccccc1-2 [TAS-103],EC50,[1]; [14],756 nM
same,EC50,[2]; [15],1500 nM
same,EC50,[5]; [16],574 nM
same,CC50,[6]; HepG2 cytotoxicity,766 nM
same,CC50,[7]; HEK293T cytotoxicity,334 nM
Cc1cc(-c2cc(O)ccc2Cl)cc2nnc(Nc3ccc(OCCN4CCCC4)cc3)nc12 [TG 100572 (Hydrochloride)],EC50,[1]; [14],589 nM
same,EC50,[2]; [15],642 nM
same,EC50,[5]; [16],122 nM
same,CC50,[6]; HepG2 cells,3440 nM
same,CC50,[7]; HEK293T cells,1730 nM
C=C/C=C/C[C@@H](C)[C@@H](O)[C@H]1C(=O)N[C@@H](CC)C(=O)N(C)CC(=O)N(C)[C@@H](CC(C)C)C(=O)N[C@@H](C(C)C)C(=O)N(C)[C@@H](CC(C)C)C(=O)N[C@@H](C)C(=O)N[C@H](C)C(=O)N(C)[C@@H](CC(C)C)C(=O)N(C)[C@@H](CC(C)C)C(=O)N(C)[C@@H](C(C)C)C(=O)N1C [Voclosporin],EC50,[1]; [14],254 nM
same,CC50,[6]; HepG2 cytotoxicity,> 9950 nM
same,CC50,[7]; HEK293T cytotoxicity,> 9950 nM
